Counter-ions that a name gives are not always drawn.
Assays:
[1] = target: T1, delta-5-desaturase (Rattus norvegicus, UniProt Q920R3); experiment: Inhibitory activity on binding of [3H]-labelled Reference Example 1 ligand to delta-5-desaturase (rat liver microsome fraction); conditions: test compound 10 μM; for inhibition at 10 µM: 3 nM tritiated ligand of Reference Example 1, read-out: Binding inhibitory activity against compound bind to delta-5-desaturase Binding inhibition rate (%) at 10 μM
T1 construct: a rat liver microsome fraction (10 μl) diluted to 3 mg/ml with a microsome buffer; from tissue; host or cells: rat liver microsome fraction
T1 sequence (Q920R3 whole entry): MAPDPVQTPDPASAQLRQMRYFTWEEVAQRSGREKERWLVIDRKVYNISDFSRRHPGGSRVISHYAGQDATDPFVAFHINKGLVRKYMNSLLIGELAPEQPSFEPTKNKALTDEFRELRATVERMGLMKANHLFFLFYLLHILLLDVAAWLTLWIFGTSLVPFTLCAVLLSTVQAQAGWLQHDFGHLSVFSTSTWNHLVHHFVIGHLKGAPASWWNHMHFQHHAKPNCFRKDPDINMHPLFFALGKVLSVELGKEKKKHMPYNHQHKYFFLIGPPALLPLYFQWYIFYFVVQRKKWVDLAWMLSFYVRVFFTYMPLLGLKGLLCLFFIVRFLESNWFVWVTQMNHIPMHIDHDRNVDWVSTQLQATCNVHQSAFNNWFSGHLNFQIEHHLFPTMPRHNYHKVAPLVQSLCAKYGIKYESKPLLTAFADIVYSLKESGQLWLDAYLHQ
Description: Inhibitory Activity on Binding of N-[2-({4-oxo-3-[4-(2,2,2-trifluoroethoxy)[2,6-^3H2]phenyl]-3,4-dihydrothieno[3,4-d]pyrimidin-2-yl}sulfanyl)ethyl]acetamide (Reference Example 1) to delta-5-desaturase)
All tests were performed at room temperature at 200 μL/well. A rat liver microsome fraction (30 μg/well) was preincubated with a test compound at a final concentration of 10 μM for 15 min in an assay buffer (10 mM Tris-HCl (pH 7.5), 100 mM KCl, 10 mM NaF, 3 mM MgCl2, 0.005% Tween20 and 1 mM GSH). N-[2-({4-oxo-3-[4-(2,2,2-trifluoroethoxy) [2,6-^3H2]phenyl]-3,4-dihydrothieno[3,4-d]pyrimidin-2-yl}sulfanyl)ethyl]acetamide was added to a final concentration of 3 nM and the mixture was incubated for 150 min. For Bound/Free separation, the membrane fraction was added on a GF/C glass filter using a cell harvester. The GF/C glass filter was washed 5 times with 300 μl of ice-cooled assay buffer (without 0.005% Tween) to separate the ligand bound to delta-5-desaturase. 50 μl of MicroScinti 0 was added, and the radioactivity on the filter was measured by TopCount. To evaluate non-specific binding, 10 μM N-[2-({4-oxo-3-[4-(2,2,2-trifluoroethoxy)phenyl]-3,4-dihydrothieno[3,4-d]pyrimidin-2-yl}sulfanyl)ethyl]acetamide was used. The inhibitory rate (%) of the test compound (10 μM) on the binding of N-[2-({4-oxo-3-[4-(2,2,2-trifluoroethoxy) [2,6-^3H2]phenyl]-3,4-dihydrothieno[3,4-d]pyrimidin-2-yl}sulfanyl)ethyl]acetamide to delta-5-desaturase was determined.

[2] = target: T1, delta-5-desaturase; experiment: Delta-5-desaturase inhibitory activity using rat liver microsome; format: biochemical; conditions: test compound 10 μM
Description: Delta-5-Desaturase Inhibitory Activity Using Rat Liver Microsome
The inhibitory activity of the test compound on delta-5-desaturase was measured by the method described below. To a solution of the test compound in DMSO prepared in advance was secondarily diluted with a buffer (300 mM NaH2PO4 [pH 7.4], 450 mM KCl, 30 mM NaF, 9 mM MgCl2, 4.5 mM glutathione [reduced form], 0.3% BSA [fatty acid free, SIGMA]) to give an assay buffer. The assay buffer (10 μl) was dispensed to a polypropylene deep 96-well block, and a rat liver microsome fraction (10 μl) diluted to 3 mg/ml with a microsome buffer (10 mM Tris-HCl [pH 7.4], 1 mM EDTA, 250 mM sucrose) was added. The enzyme reaction was started by adding 9 mM NADH, 9 mM ATP, 0.9 mM CoA, 10 μCi/ml (8E,11E,14E)-(1-^14C)eicosa-8,11,14-trienoic acid (PerkinElmer Inc.) (10 μl). The enzyme reaction was performed for 120 min at room temperature, and discontinued by the addition of 10 μl of 2.5M NaOH. After discontinuation of the reaction, the plate was sealed and incubated overnight at 55° C. to allow saponification. The fatty acid was extracted with solvent based on the Bligh & Dyer method described in Can. J. Biochem. Physiol., vol. 37, page 911 (1959) by adding formic acid:methanol:chloroform (1:6:3) (200 μl), maintaining the single layer state, sufficiently stirring the mixture and adding pure water (120 μl) for separation into two layers. The lower chloroform layer (10 μl) was spotted on a reversed-phase TLC plate (RP-18, 1154230001, Merck Japan, Ltd.), developed with acetonitrile:pure water:acetic acid (95:4.5:0.5), and the dried TLC plate was transcribed on Imaging Plate (Fuji Photo Film Co., Ltd.) for 5 hr or longer. The detection was performed using BAS-5000 (Fuji Photo Film Co., Ltd.), and the obtained spot image was numerically converted by Multi Gauge Ver2.3 (Fuji Photo Film Co., Ltd.) and a delta-5-desaturase inhibitory rate (%) of 10 μM test compound was determined.

[3] = target: T2, delta-5-desaturase (Homo sapiens, UniProt O60427); experiment: Delta-5-desaturase inhibitory activity using HepG2 cell; format: cell-based; conditions: test compound 1 μM
T2 construct: endogenous in cells; host or cells: HepG2
T2 sequence (O60427 whole entry): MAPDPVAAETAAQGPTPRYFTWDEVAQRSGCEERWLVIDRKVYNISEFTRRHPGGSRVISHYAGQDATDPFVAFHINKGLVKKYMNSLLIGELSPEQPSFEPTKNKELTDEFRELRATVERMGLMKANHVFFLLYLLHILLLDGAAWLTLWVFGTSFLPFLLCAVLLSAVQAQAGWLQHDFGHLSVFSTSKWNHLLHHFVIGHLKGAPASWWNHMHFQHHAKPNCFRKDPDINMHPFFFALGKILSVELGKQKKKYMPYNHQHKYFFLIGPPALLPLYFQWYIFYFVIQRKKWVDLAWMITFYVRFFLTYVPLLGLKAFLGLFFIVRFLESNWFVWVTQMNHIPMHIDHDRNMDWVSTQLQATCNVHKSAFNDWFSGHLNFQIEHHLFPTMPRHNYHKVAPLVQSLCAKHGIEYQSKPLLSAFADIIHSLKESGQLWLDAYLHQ
Description: Delta-5-Desaturase Inhibitory Activity Using HepG2 Cell
HepG2 was plated on a 96-well plate at 1×10^5 cells/well, and cultured overnight in DMEM (Dulbecco's modified Eagle medium) containing 10% FBS (fetal bovine serum). After washing (200 μL×2) with PBS (phosphate buffered saline), 40 μL of a reaction medium (DMEM, penicillin/streptomycin, 0.3% BSA) containing the test compound was added, and the mixture was preincubated in a CO2 incubator at 37° C. for 30 min. The reaction was started by adding a reaction medium (20 μL) containing 0.1 μCi [^14C]Eicosatrienoic acid, and the mixture was incubated in a CO2 incubator at 37° C. Incubation was performed for 3 hr, the cells were washed twice with 200 μL of PBS, detached with 50 μL of trypsin-EDTA and placed on a 96-deep well block. Furthermore, 20 μL of 2.5N NaOH was added, the plate was sealed and incubated overnight at 55° C. to allow saponification. The fatty acid extraction included acidifying with 10 μL of formic acid, adding chloroform:methanol (1:4), stirring, and further adding 200 μL of pure water to separate into two layers. The operation after development with TLC followed the method of detection system using TLC in a system using a rat liver microsome. A delta-5-desaturase inhibitory rate (%) of 1 μM test compound was determined.

[4] = target: T3, delta-5-desaturase (Mus musculus, UniProt Q920L1); experiment: Delta-5-desaturase inhibitory action in vivo (liver AA/DGLA ratio in mice); conditions: 3 mg/kg by gavage for 4 days; male C57BL/6J mice; liver phospholipid fraction; solvent administration group as 100%
T3 construct: the mice were anesthetized, and the liver was isolated; tissue CLEA Japan, Inc; host or cells: liver of C57BL/6J mice (in vivo dosing)
T3 sequence (Q920L1 1-447): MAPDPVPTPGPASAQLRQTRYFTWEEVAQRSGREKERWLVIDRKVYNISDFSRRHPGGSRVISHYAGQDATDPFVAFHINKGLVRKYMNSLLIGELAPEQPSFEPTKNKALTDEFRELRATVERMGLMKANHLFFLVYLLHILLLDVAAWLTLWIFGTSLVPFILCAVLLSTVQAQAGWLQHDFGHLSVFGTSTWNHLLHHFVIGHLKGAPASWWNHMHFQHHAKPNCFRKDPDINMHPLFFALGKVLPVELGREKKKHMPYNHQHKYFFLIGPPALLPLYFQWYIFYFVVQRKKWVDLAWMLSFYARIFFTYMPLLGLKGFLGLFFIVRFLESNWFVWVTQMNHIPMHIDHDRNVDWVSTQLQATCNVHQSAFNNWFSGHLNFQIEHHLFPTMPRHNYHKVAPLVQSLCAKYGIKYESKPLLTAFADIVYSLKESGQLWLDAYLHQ
Description: Delta-5-Desaturase Inhibitory Action In Vivo
The delta-5-desaturase inhibitory action of the test compound in vivo was evaluated by the following method. A suspension of a test compound (3 mg/kg) in 0.5% methylcellulose was administered by gavage every morning at 10 mL/kg for 4 days to 7- to 9-week-old male normal mice (C57BL/6J, CLEA Japan, Inc.) acclimated with a normal chow feed (CE-2, CLEA Japan, Inc.) in individual cages. In the next morning of the final administration, the mice were anesthetized, and the liver was isolated. Total lipid was extracted from about 40 mg of a liver sample with hexane-propanol solution, and a phospholipid fraction was extracted using a solid phase extraction column (Sep-Pak Vac NH2, Waters) and labeled with an esterified long-chain and short-chain fatty acid labeling reagent (YMC). The arachidonic acid and dihomo-γ-linolenic acid contents of the sample after labeling were measured by high performance liquid chromatography (Agilent 1200, Agilent Technologies). The arachidonic acid (AA) content was divided by the content of dihomo-γ-linolenic acid (DGLA) to obtain an AA/DGLA ratio. The decrease rate of the test compound administration group was calculated based on the AA/DGLA ratio of the solvent administration group as 100%, which was used as an index of the liver delta-5-desaturase inhibitory action in vivo.

SMILES	inhibition at 10 µM [1] [%]	inhibition at 10 µM [2] [%]	inhibition at 1 µM [3] [%]	lowering rate (%) of arachidonic acid/dihomo-γ-linolenic acid ratio [4] [%]	Binding inhibitory activity against compound bind to delta-5-desaturase Binding inhibition rate (%) at 10 μM ([1]; 3 nM tritiated ligand of Reference Example 1, sodium salt) [%]	delta-5-desaturase inhibitory activity (at liver microsome) Inhibitory activity (%) at 10 μM ([2]; sodium salt, 10 µM) [%]
CCSc1nc2nc(OC)ccc2c(=O)n1-c1ccc(OCC(F)(F)F)cc1 [Example 1, 2-(ethylsulfanyl)-7-methoxy-3-[4-(2,2,2-trifluoroethoxy)phenyl]pyrido[2,3-d]pyrimidin-4(3H)-one]	94	100	101	73	–	–
CCOc1nc2nc(OC)ccc2c(=O)n1-c1ccc(OCC(F)(F)F)cc1 [Example 4, 2-ethoxy-7-methoxy-3-[4-(2,2,2-trifluoroethoxy)phenyl]pyrido[2,3-d]pyrimidin-4(3H)-one]	99	102	96	64	–	–
O=c1ccc2c(=O)n(-c3ccc(OCC(F)(F)F)cc3)c(OCC(F)(F)F)nc2[nH]1 [Example 12, 2-(2,2,2-trifluoroethoxy)-3-[4-(2,2,2-trifluoroethoxy)phenyl]pyrido[2,3-d]pyrimidine-4,7(3H,8H)-dione sodium salt]	–	–	–	70	96	99
O=c1ccc2c(=O)n(-c3ccc(OCC(F)(F)F)cc3)c(OC3CCC(F)(F)CC3)nc2[nH]1 [Example 15, 2-[(4,4-difluorocyclohexyl)oxy]-3-[4-(2,2,2-trifluoroethoxy)phenyl]pyrido[2,3-d]pyrimidine-4,7(3H,8H)-dione]	99	104	102	69	–	–
O=c1ccc2c(=O)n(-c3ccc(OCC(F)(F)F)cc3)c(OCC(F)F)nc2[nH]1 [Example 16, 2-(2,2-difluoroethoxy)-3-[4-(2,2,2-trifluoroethoxy)phenyl]pyrido[2,3-d]pyrimidine-4,7(3H,8H)-dione]	96	101	102	69	–	–
O=C1CCc2c(nc(OCC(F)(F)F)n(-c3ccc(OCC(F)(F)F)cc3)c2=O)N1 [Example 22, 2-(2,2,2-trifluoroethoxy)-3-[4-(2,2,2-trifluoroethoxy)phenyl]-5,6-dihydropyrido[2,3-d]pyrimidine-4,7(3H,8H)-dione]	92	100	101	68	–	–
CCOc1nc2c(c(=O)n1-c1ccc(OCC(F)(F)F)cc1)CCC(=O)N2 [Example 23, 2-ethoxy-3-[4-(2,2,2-trifluoroethoxy)phenyl]-5,6-dihydropyrido[2,3-d]pyrimidine-4,7(3H,8H)-dione]	91	96	93	67	–	–
O=C1CCc2c(nc(CCC(F)(F)F)n(-c3ccc(OCC(F)(F)F)cc3)c2=O)N1 [Example 39, 3-[4-(2,2,2-trifluoroethoxy)phenyl]-2-(3,3,3-trifluoropropyl)-5,6-dihydropyrido[2,3-d]pyrimidine-4,7(3H,8H)-dione]	91	–	98	67	–	–
